Source: patent US9421193B2, “Benzothiazole derivatives and a use thereof for the treatment of cancer” (Korea Institute of Radiological & Medical Sciences, priority 2014, dated 2016)

Key:
3T3-L1 cells = assay: PPAR-γ ligand identification test: adipogenesis induction, Oil-Red-O staining; type: cell-based; conditions: 10 μM, about 48 hours
Experimental: The ability to induce adipogenesis of the compound PB11 of Example 3 and the compound PB01 of Example 5 was tested to identify whether the compounds PB11 and PB01 had activity of PPAR-γ ligands. 3T3-L1 cells (American Type Culture Collection, Manassas, Va.) were treated with 10 μM of the compounds PB11 or PB01 to induce adipogenesis. 3T3-L1 cells without any treatment, those treated with the same concentration of ciglitazone, and those treated with the same concentration of GW9662 (Cayman, Ann Arbor, Mich.) known as PPAR-γ ligand antagonist were used as control groups. After the induction of adipogenesis for about 48 hours, a degree of adipogenesis was identified by Oil-Red-O staining.
FIG. 1 illustrates the results of imaging degrees of adipogenesis via Oil-Red-O staining after the treatment of 3T3-L1 cells with control compounds and 10 μM of the compounds PB01 or PB11 of Examples 3 and 5 for about 48 hours to induce adipogenesis.

[1] = tested on: non-small cell lung cancer cell strain H460; assay: Morphological changes, inverted microscope 200×; type: cell-based, human; conditions: 50 μM, 48 hours
Experimental: After the incubation along with 50 μM of the compounds PB01 or PB11 for 48 hours, morphological changes in the non-small cell lung cancer cell strain H460 were observed using an inverted microscope at a magnification of 200×.

[2] = tested on: non-small cell lung cancer cell strain A549; assay: Nuclear agglutination and segmentation, Hoechst 33342 staining; type: cell-based, human; conditions: 50 uM, about 48 hours
Experimental: (§1) To observe typical nuclear morphological changes from cell death, the cells treated with the compounds PB01 or PB11 of Examples 5 and 3 were collected, followed by removing a supernatant. After 500 μl of a fixing solution as a 1:9 mixture of a 37% formaldehyde solution and PBS buffer solution was added into the remaining cells, thoroughly mixed together, and left at room temperature for about 10 minutes for fixation. After the fixed cells were centrifuged at about 2,000 rpm for about 5 minutes, the fixing solution was removed, and the remaining cells were floated in a PBS buffer solution. After dropping the floating cells onto a slide glass, followed by cytospinning at about 1,000 rpm for about 5 minutes to fix the floating cells onto the slide glass. The slide glass with the fixed cells was treated with 2 μg/mL of a Hoechst 33342 solution (Sigma, St. Louis, Mo., U.S.A), followed by staining at room temperature for about 20 minutes. After termination of the staining, the staining reagent was washed out, and nuclear morphological changes in the cancer cells were observed by florescent microscopy (ECLIPSE E600; Nikon, Tokyo, Japan) at a 400× magnification.

[3] = tested on: non-small cell lung cancer cell strain H460; assay: as above; type: cell-based, human; conditions: 50 uM, about 48 hours
Experimental: as §1

[4] = tested on: non-small cell lung cancer cells A549; assay: Sub-G1 phase cell number, propidium iodide flow cytometry; type: cell-based, human; conditions: 50 μM, 48 hours
Experimental: (§2) After incubation of the non-small cell lung cancer cells A549 and H460 treated with 50 μM of the compound PB01 or PB11 of Examples ?5 and 3 for 48 hours, the non-small cell lung cancer cells A549 and H460 were collected and floated with a 1×PBS (pH 7.4), followed by fixing at about −20° C. with a 70% cold ethanol, washing twice with a 1×PBS, and then staining with 10 μg/mL of propidium iodide (including 0.5% of PI, Tween-20, 100 μg/mL of 0.1% RNase) at room temperature for about 30 minutes. The stained cells were analyzed by flow cytometry with a FACScan™ (available from Becton Dicknson).

[5] = tested on: non-small cell lung cancer cells H460; assay: as above; type: cell-based, human; conditions: 50 μM, 48 hours
Experimental: as §2

[6] = tested on: non-small cell lung cancer cell strain A549; assay: Apoptosis ratio, Annexin V flow cytometry; type: cell-based, human; conditions: 50 μM, about 40 hours, FIG. 9A
Experimental: (§3) About 5×10^5 cells per well of each of the non-small cell lung cancer cell strains A549 and H460 were portioned into a 6-well plate and then incubated with the compounds PB01 or PB11 for about 40 hours in the same manner as described above. A cell layer was washed with PBS and then treated with trypsin-EDTA solution to isolate cells. The isolated cells were collected and stained with an Annexin V Flous Staining kit (available Roche Applied Science, Penzberg, Germany) in a dark condition for about 30 minutes. The stained cells were analyzed by flow cytometry using a FACScan™ (available from Becton Dicknson) to count the number of dead cells and then calculate an apoptosis ratio. The same experiment was performed with 50 μM of PB01, 50 μM of PB11, or 150 μM of PB12 in the same manner as described above. The graphs of cell viability with respect to compound concentration and incubation time obtained based on the experimental results are shown in FIGS. 9A and 9B.

[7] = tested on: non-small cell lung cancer cell strain H460; assay: Apoptosis ratio, Annexin V flow cytometry; type: cell-based, human; conditions: about 40 hours, 50 μM PB01, 50 μM PB11, 150 μM PB12, FIGS. 9A and 9B
Experimental: as §3

[8] = tested on: non-small cell lung cancer cell strain H460; assay: Radiation sensitivity measurement, colony formation; type: cell-based, human; conditions: 14 days
Experimental: About 500 cells of non-small cell lung cancer cell strain H460 were floated on each of 60-mm cell culture plates, and then incubated for about 24 hours. After the cells were stably fixed on the bottom of the cell culture plate, the cells were treated with ciglitazone (10 μM), PB01 (10 μM), or PB11 (5 μM, 10 μM), cultured for about 24 hours, and then irradiated with γ-radiation (3.2 Gy/min, Gammacell 3000; Atomic Energy of Canada, Ltd., Mississauga, ON, Canada) at doses of 2 Gy, 4 Gy, and 6 Gy. After incubation for 14 days, followed staining using a 1% crystal violet staining reagent solution (in methanol) to selectively count colonies having a diameter of about 0.5 mm or larger. SF (surviving fraction)=number of colonies formed/number of cells seeded×plating efficiency of the control group

Row | Structure (SMILES) | PPAR-γ ligand identification (3T3-L1 cells) | ability to induce adipogenesis (3T3-L1 cells) | morphological changes [1] | nuclear morphological changes (apoptotic bodies) [2] | nuclear morphological changes (apoptotic bodies) [3] | number of sub-G1 phase cells [4] | number of sub-G1 phase cells [5] | apoptosis induction (Annexin V) [6] | apoptosis induction (Annexin V) [7] | effect as radiation sensitizer ([8]; 5 μM in combination with radiation at a dose of 4 Gy) | effect as radiation sensitizer ([8]; 10 μM in combination with radiation at a dose of 4 Gy)
1 | Cc1noc(C)c1CSc1nc2ccc(NC(=O)C3CCC(=O)CC3)cc2s1 [PB11] | found to be PPAR-γ ligands | high activity in adipogenesis induction | lose adhesion with reduced density | increased apoptotic bodies due to nuclear agglutination | increased apoptotic bodies due to nuclear agglutination | sharp increase | sharp increase | kill the non-small cell lung cancer cells by inducing apoptosis | kill the non-small cell lung cancer cells by inducing apoptosis | significant effect as radiation sensitizers | –
2 | COC1CCC(C(=O)Nc2ccc3nc(SCc4c(C)noc4C)sc3c2)CC1 (centres unmarked) [PB01] | found to be PPAR-γ ligands | outstanding ability to induce adipogenesis | lose adhesion with reduced density | increased apoptotic bodies due to nuclear agglutination | increased apoptotic bodies due to nuclear agglutination | sharp increase | sharp increase | kill the non-small cell lung cancer cells by inducing apoptosis | kill the non-small cell lung cancer cells by inducing apoptosis | – | significant effect as radiation sensitizers
